Laboratory results: ChEMBL document CHEMBL1201862, “PubChem BioAssay data set” (2004)
Several values for one entry are separate records, joined by “and”; a condition that tells them apart may be missing. Identical values can stand only once. Activity calls are given as the source filed them.

How the values were obtained:
[1] = HepG2 cell cytotoxicity, dose response, cytotoxicity control for Shn3 inhibitor project, CellTiter-Glo, cherry-picked (AID 624134); format: functional, cell-based
[2] = reduction of Shn3 3'UTR firefly luciferase signal, dose response, Schnurri-3 inhibitor project, cell-based, Clone20 osteoblasts, cherry-pick, set 2 (AID 720490); format: functional;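 also: actives lower the luminescence signal as inhibitors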
[3] = control 3'UTR Renilla luciferase suppression, dose response, counter-screen for Shn3 inhibitor project, cell-based, Clone20-Shn3RL, cherry-picked (AID 624133); format: functional
[4] = Shn3 3'UTR reporter inhibitors, dose response, cell-based, Clone20 osteoblasts, firefly luciferase, cherry-picked (AID 624132); format: functional;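 also: firefly luciferase luminescence from reporter carrying the Shn3 3'UTR in osteoblasts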
[5] = inhibitors of control Renilla luciferase reporter, dose response, counter-screen for Shn3 3'UTR targeting project, Clone20-Shn3RL cells, dual-Glo, cherry-pick, set 2 (AID 720724); format: functional, cell-based; settings: Dual-Go Shn3RL
[6] = Luminescence Cell-Based Dose Retest to Confirm Inhibitors of Cancer Stem Cells. [Related pubchem assays (depositor defined):AID2717, AID2721]; format: functional; settings: Homo sapiens
[7] = Fluorescence-based cell-based high throughput dose response assay for inhibitors of the interaction of nucleotide-binding oligomerization domain containing 2 (NOD2) and the receptor-interacting serine-threonine kinase 2 (RIPK2).; format: functional; settings: Homo sapiens
[8] = non-specific cell cytotoxicity, dose response, cytotoxicity control for PAX8 inhibitor project, plate reader, dry powder samples (AID 743021); format: functional, cell-based
[9] = molecular target: Paired box protein Pax-8 (Homo sapiens, UniProt Q06710); assay: inhibitors of PAX8-driven TPO luciferase reporter, dose response, RMG-I cells, cherry-pick (AID 687027); format: functional, cell-based;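 also: luciferase reporter driven by Pax8 target thyroperoxidase promoter measured by SteadyGlo luminescence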
[10] = molecular target: Beta Lactamase (Pseudomonas aeruginosa, UniProt Q932Y6); assay: beta-lactamase reporter inhibitor potency, dose response, artefact control for NOD2-RIPK2 interaction inhibitor project, BLA reporter cells, FRET fluorescence (AID 651552); format: functional, cell-based
[11] = molecular target: Melanocortin receptor 4 (Homo sapiens, UniProt P32245); format: functional, cell-based;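 also: Cell-based assay with luminescence read-out, confirmatory dose-response testing for agonist activity of biased ligands at MC4R; human U2OS cells with tagged receptor and beta-arrestin; potency of agonists that increase receptor coupling to beta-arrestin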
[12] = molecular target: T1, Sentrin-specific protease 1 (Homo sapiens, UniProt Q9P0U3); assay: Dose response confirmation of small molecule inhibitors of the catalytic domain of the SUMO protease, SENP1 in a FRET assay.; format: functional; settings: read-out: IC50_Mean
[13] = molecular target: T1, Sentrin-specific protease 1; assay: potency of human SENP1 inhibitors, dose response, biochemical, kinetic FRET (AID 651697); format: functional; settings: read-out: IC50_Mean
[14] = molecular target: Oxysterols receptor LXR-beta (Homo sapiens, UniProt P55055); format: functional, cell-based;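 also: agonist activity at LXR measured by a cell-based luminescence readout across a dose range, run as a counterscreen for daf-12 agonists; HEK293 cells with Gal4-LXR fusion and GAL4-driven luciferase reporter; potency for activation of Gal4-LXR reporter so compounds are agonists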
[15] = HEp-2 cell cytotoxicity, dose response, cytotoxicity control for RSV inhibitor project, HTS (AID 2410); format: functional; settings: human respiratory syncytial virus
[16] = molecular target: T2, ATP-dependent translocase ABCB1 (Homo sapiens, UniProt P08183); assay: ABCG2 efflux pump inhibitor potency, dose response, Ig-MXP3 cells, JC-1, flow cytometry, set 2 (AID 504566); format: functional; settings: read-out: EC50_MICROM_;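 also: flow cytometry median green fluorescence of retained JC-1 dye; potency of efflux pump inhibition measured as rising substrate retention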
[17] = molecular target: T2, ATP-dependent translocase ABCB1; assay: ABCB1 efflux inhibitor potency, dose response, Jurkat-DNR cells, JC-1, flow cytometry, set 2 (AID 504569); format: functional; settings: read-out: EC50_MICROM_;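 also: potency of pump inhibitors that raise cellular JC-1 green fluorescence up to the nicardipine level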
[18] = system: HEK293; assay: HEK293T cell cytotoxicity, dose response, cytotoxicity control, ATP luminescence, cherry-pick samples (AID 687005); format: functional, cell-based; settings: Homo sapiens;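 also: cells exposed to compound for 48 hours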
[19] = HEK293 Cytotoxicity Assay Measured in Cell-Based System Using Plate Reader - 7071-01_Inhibitor_Dose_CherryPick_Activity_Set2.; format: functional
[20] = molecular target: T3, Beta-2 adrenergic receptor (Homo sapiens, UniProt P07550); assay: Dose response for HTS for Beta-2AR agonists via FAP method from Powderset1.; format: functional
[21] = molecular target: T3, Beta-2 adrenergic receptor; assay: beta2AR agonists driving receptor internalization, dose response, cell-based, FAP fluorogen, flow cytometry, cherry pick 1 (AID 588763); format: functional
[22] = molecular target: T4, Adenosylmethionine-8-amino-7-oxononanoate aminotransferase (Mycobacterium tuberculosis, UniProt P9WQ81); assay: Mycobacterium tuberculosis BioA enzyme inhibitor Measured in Biochemical System Using Plate Reader - 2163-02_Inhibitor_Dose_CherryPick_Activity.; format: functional, Mycobacterium tuberculosis UT205
T4 sequence (P9WQ81 whole entry): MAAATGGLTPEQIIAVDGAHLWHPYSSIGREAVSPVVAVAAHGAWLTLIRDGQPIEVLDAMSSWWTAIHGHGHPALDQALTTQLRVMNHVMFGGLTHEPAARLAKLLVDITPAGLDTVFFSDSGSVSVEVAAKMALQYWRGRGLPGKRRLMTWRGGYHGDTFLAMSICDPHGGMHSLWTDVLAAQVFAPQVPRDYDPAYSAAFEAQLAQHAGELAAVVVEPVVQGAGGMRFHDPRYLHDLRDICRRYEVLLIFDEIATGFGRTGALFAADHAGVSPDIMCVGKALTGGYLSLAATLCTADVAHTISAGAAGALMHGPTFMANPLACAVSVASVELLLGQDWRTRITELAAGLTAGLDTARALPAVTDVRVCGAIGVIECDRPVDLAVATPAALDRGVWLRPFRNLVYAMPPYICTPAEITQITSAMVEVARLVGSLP

[23] = system: HeLa; assay: HeLa cell cytotoxicity, dose response, cytotoxicity control, ATP luminescence, cherry-pick samples (AID 687004); format: functional, cell-based; settings: Homo sapiens
[24] = cells; format: functional, cell-based
[25] = cytotoxicity toward DRD oncogenic fibroblasts, dose response, cell-based, non-viral oncogenic, luminescence (AID 1934); format: functional; settings: Homo sapiens
[26] = system: BJ; assay: cytotoxicity toward BJ-TERT fibroblasts, dose response, cell-based, RAS-independent, luminescence (AID 1933); format: functional; settings: Homo sapiens
[27] = system: BJ; assay: cytotoxicity toward BJ-TERT-LT-ST fibroblasts, dose response, cell-based, RAS-independent, luminescence (AID 1935); format: functional; settings: Homo sapiens;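 also: BJ fibroblasts immortalized with TERT plus LT and ST oncogenes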
[28] = system: INS1; assay: beta cell apoptosis inhibitors, cytokine rescue, dose response, luminescence, retest (AID 449756); format: functional, cell-based; settings: Rattus norvegicus;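 also: cell death triggered by IL-1 beta plus TNF-alpha plus IFN-gamma mixture; protective hits raise ATP signal compared with cytokine alone wells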
[29] = molecular target: SWI/SNF-related matrix-associated actin-dependent regulator of chromatin subfamily A member 2 (Homo sapiens, UniProt P51531); assay: Luminescence-based cell-based high throughput dose response assay to identify activators of the function of SWI/SNF related, matrix associated, actin dependent regulator of chromatin, subfamily a, member 2 (SMARCA2, BRM).; format: functional
[30] = Counterscreen for activators of the function of SWI/SNF related, matrix associated, actin dependent regulator of chromatin, subfamily a, member 2 (SMARCA2, BRM): Luminescence-based cell-based high throughput dose response assay to identify non-selective compounds using the VP16 reporter assay.; format: functional
[31] = molecular target: DNA repair and recombination protein RAD54-like (Homo sapiens, UniProt Q92698); assay: inhibitors of human RAD54 branch migration, confirmation, biochemical, fluorescence, cherry-picked samples, dose series (AID 651657); format: functional
[32] = molecular target: Aryl hydrocarbon receptor (Homo sapiens, UniProt P35869); assay: Luminescence-based cell-based high throughput dose response assay for activators of the Aryl Hydrocarbon Receptor (AHR). [Related pubchem assays: 2796 (Primary screen (AHR activators in singlicate)), 2845 (Confirmation screen (AHR activators in triplicate)), 434939 (Counterscreen (PXR activators in triplicate)), 2804 (Summary (AHR activators))]; format: ADME
[33] = cells; format: functional, cell-based; remark: listed apart in the source
[34] = system: BJ; assay: cells; format: functional, cell-based; settings: Homo sapiens
[35] = human group III sPLA2 inhibitors, dose response, biochemical, QFRET, IC50 (AID 743457);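 also: green fluorescence rise as the enzyme cleaves BODIPY PC-A2 in liposomes; potency for inhibition of the enzyme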
[36] = system: Streptococcus sp. 'group A'; assay: growth inhibition of control SK(-) GAS strain, dose response, counter-screen for streptokinase expression inhibitor project, luminescence, kanamycin, BacTiterGlo, confirmation (AID 1900); format: functional, organism-based
[37] = system: Streptococcus; assay: Group A Streptococcus viability loss, dose response, counter-screen for streptokinase expression inhibitor project, luminescence, BacTiterGlo (AID 1915); format: functional, organism-based;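 also: potency for reduction of bacterial viability or growth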

T3 sequence (P07550 whole entry): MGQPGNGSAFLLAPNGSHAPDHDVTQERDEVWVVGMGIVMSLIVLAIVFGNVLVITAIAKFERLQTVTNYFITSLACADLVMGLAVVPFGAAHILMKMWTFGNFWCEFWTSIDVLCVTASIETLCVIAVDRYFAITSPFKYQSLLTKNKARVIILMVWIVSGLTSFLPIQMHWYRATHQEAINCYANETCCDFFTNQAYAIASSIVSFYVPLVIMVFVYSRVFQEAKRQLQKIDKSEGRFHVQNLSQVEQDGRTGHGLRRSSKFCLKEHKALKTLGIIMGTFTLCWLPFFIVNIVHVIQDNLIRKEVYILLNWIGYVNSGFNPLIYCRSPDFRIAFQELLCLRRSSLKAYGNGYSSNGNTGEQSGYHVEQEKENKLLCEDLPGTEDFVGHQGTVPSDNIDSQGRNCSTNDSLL
Sequence of Melanocortin receptor 4 (P32245 whole entry, the tested form may be a part): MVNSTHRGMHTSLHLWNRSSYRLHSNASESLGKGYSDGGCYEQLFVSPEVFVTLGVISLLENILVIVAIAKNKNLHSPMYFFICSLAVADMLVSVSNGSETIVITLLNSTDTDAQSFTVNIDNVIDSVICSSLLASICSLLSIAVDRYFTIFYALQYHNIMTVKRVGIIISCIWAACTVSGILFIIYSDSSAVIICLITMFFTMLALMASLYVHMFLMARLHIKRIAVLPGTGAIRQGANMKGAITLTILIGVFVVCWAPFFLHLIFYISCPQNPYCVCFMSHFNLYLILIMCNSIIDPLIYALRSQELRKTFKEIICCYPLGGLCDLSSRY
T2 sequence (P08183 whole entry): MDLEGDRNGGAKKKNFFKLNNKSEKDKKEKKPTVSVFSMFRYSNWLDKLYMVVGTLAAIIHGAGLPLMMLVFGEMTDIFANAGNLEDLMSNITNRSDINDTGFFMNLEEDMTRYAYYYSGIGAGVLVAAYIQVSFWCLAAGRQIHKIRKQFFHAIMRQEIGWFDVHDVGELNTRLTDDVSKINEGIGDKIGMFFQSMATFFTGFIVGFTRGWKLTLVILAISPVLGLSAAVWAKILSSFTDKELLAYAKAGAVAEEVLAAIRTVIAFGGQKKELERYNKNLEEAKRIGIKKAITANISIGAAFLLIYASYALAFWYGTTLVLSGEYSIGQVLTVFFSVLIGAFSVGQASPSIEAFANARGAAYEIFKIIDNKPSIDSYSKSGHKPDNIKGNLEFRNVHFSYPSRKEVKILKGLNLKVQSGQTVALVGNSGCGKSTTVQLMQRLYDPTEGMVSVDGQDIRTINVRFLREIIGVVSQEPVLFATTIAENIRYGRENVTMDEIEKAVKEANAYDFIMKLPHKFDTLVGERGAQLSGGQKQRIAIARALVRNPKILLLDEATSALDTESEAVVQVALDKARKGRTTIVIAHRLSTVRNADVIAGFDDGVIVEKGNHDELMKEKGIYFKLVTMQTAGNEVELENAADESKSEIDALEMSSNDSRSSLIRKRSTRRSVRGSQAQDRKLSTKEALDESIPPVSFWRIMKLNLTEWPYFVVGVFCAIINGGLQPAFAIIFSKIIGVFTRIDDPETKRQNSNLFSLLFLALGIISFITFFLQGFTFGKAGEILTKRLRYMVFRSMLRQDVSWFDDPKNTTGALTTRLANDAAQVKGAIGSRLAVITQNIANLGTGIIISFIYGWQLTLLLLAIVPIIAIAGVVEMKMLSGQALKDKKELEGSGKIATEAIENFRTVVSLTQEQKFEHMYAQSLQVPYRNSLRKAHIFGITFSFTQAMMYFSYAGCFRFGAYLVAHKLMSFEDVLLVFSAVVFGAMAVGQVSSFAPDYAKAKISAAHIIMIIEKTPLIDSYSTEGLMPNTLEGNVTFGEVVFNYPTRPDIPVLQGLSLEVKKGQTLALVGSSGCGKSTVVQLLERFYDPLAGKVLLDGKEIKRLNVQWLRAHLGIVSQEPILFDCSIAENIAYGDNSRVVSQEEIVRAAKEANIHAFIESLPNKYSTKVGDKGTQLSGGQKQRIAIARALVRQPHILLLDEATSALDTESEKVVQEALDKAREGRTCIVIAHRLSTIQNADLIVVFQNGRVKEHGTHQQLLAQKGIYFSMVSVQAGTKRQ
T1 sequence (Q9P0U3 whole entry, the tested form may be a part): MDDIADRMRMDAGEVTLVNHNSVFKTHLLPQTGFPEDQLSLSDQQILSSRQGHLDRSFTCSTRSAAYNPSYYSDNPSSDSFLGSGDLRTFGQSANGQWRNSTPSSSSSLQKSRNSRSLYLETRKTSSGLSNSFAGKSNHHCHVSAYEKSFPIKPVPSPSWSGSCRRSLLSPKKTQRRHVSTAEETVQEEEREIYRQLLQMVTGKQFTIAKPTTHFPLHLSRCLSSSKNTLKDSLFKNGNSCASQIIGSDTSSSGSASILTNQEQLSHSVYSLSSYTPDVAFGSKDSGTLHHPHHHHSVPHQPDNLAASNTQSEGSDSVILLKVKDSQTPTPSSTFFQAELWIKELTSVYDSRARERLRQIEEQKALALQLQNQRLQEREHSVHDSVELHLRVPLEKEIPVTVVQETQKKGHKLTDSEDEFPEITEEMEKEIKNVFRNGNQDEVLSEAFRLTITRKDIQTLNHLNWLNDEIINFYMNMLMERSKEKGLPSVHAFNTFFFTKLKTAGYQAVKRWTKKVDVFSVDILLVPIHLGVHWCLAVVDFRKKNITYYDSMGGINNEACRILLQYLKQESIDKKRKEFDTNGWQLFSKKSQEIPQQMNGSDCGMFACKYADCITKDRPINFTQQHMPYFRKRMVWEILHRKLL
Sequence of DNA repair and recombination protein RAD54-like (Q92698 whole entry): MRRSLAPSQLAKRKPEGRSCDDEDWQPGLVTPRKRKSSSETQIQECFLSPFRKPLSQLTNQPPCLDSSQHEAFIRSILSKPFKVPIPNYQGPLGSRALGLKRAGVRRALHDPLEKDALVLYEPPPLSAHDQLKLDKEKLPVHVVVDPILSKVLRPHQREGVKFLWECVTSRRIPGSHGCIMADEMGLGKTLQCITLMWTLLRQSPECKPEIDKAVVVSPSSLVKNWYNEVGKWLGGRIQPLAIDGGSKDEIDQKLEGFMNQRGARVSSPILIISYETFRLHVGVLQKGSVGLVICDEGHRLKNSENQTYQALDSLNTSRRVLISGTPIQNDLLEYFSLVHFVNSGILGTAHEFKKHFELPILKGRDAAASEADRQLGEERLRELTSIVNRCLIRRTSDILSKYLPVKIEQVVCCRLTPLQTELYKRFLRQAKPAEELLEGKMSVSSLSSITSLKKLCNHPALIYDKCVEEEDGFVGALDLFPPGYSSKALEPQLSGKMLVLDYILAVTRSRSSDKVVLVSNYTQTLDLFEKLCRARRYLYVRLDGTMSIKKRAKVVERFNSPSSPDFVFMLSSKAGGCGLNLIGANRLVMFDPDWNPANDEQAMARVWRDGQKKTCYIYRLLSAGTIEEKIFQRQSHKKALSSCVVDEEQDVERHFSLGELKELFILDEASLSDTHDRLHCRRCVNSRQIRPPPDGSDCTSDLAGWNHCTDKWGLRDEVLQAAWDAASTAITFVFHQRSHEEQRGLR
Sequence of SWI/SNF-related matrix-associated actin-dependent regulator of chromatin subfamily A member 2 (P51531 whole entry): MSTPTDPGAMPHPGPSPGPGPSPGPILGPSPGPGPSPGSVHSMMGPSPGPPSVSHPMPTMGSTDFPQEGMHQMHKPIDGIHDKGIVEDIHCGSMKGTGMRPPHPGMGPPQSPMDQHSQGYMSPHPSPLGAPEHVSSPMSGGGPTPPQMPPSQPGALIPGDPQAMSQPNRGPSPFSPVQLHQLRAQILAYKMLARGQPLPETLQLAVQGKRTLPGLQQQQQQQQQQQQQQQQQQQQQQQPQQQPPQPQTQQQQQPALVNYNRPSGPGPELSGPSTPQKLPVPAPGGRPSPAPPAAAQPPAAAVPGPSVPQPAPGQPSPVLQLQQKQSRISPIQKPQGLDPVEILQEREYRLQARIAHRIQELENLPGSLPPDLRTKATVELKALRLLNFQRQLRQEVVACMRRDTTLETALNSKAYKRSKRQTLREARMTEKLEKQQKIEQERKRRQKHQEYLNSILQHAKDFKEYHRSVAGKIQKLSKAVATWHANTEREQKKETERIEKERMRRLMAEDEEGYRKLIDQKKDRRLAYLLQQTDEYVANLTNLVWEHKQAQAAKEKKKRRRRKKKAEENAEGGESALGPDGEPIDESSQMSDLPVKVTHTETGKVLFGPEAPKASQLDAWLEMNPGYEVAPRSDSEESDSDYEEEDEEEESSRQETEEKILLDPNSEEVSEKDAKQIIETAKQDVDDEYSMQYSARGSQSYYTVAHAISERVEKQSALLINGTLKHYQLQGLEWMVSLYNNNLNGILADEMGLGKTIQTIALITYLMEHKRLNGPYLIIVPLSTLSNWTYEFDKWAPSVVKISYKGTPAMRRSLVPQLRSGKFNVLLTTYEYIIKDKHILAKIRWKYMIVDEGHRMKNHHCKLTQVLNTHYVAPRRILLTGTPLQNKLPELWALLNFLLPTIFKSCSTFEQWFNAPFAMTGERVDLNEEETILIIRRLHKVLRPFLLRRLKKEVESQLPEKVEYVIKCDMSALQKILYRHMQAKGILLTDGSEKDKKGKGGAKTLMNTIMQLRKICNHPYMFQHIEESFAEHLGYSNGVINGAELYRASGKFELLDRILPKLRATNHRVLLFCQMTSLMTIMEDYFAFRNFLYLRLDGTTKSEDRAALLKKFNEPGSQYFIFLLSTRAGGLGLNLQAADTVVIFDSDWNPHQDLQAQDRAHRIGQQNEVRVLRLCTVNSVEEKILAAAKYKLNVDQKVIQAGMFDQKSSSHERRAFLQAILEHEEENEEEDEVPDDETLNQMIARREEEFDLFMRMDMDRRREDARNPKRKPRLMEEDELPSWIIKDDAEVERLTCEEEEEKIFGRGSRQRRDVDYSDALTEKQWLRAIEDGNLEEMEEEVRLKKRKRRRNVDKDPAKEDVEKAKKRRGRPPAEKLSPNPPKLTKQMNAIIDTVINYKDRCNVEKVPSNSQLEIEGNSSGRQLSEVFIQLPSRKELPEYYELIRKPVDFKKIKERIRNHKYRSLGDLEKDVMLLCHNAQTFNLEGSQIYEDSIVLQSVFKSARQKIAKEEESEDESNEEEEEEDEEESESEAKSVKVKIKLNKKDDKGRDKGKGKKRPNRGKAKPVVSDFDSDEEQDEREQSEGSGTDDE

Cc1ccc2nc(NC(=O)C3CCN(S(=O)(=O)c4ccc5c(c4)oc(=O)n5C)CC3)sc2c1
AC50 [1]: 54.7 µM (active) | AC50 [2]: 7.23 µM (active) | AC50 [3]: 11.1 µM (active) | AC50 [4]: 3.35 µM (active) | AC50 [5]: 29.1 µM (active)

CC(C)(C)[C@H](N)C(=O)N[C@H]1CCC2C3CC=C4C[C@@H](O)CC[C@]4(C)C3CC[C@@]21C (stereo partly drawn)
AC50 [6]: 3.67 µM (active) | IC50 [7]: 17.7 µM (inactive) | AC50 [8]: 40.7 µM (active) | AC50 [9]: 9.31 µM (active) | IC50 [10]: 19.5 µM (inactive)

CCOc1ccc(Cn2c3ccc(OC)cc3c3nc4ccccc4nc32)cc1OC
EC50 [11]: > 89.2 µM (inactive) | IC50 [12]: 6.92 µM (active) | IC50 [13]: 12.8 µM (active)

Nc1nn(-c2cccc(F)n2)cc1-c1ccccc1
EC50 [14]: > 67.5 µM (inactive)

Cc1cc(N2CCN(C(=O)c3ccco3)CC2)n2nc(-c3cccc(Cl)c3)cc2n1
EC50 [11]: > 89.2 µM (inactive) | CC50 [15]: 34.7 µM (active) | EC50 [16]: 2.24 µM (active) | EC50 [17]: 5.05 µM (inactive)

C[C@@H]1CN([C@@H](C)CO)C(=O)Cc2cc(NC(=O)c3ccncc3)ccc2O[C@H]1CN(C)Cc1ccncc1
AC50 [18]: > 52 µM (inactive) | AC50 [19]: > 52 µM (inactive)

CC(=O)Nc1ccc(S(=O)(=O)N2CCCCC2c2cccnc2)cc1 (stereo not drawn)
EC50 [20]: 0.0233 µM (active) | EC50 [21]: 262 nM (active) and 107 nM (active)

O=C(C1CCOCC1)N1CC[C@@H]2[C@H]1c1cc(Br)ccc1N[C@@H]2CO
AC50 [22]: 4.59 µM (active) | AC50 [23]: > 52 µM (inactive)

Nc1cc2c3c(cccc3c1)C(=O)N(CCN1CCCC1)C2=O
EC50 [24]: > 350 µM (not active) | EC50 [25]: 19.5 µM (active) | EC50 [26]: 13.2 µM (active) | EC50 [27]: > 150 µM (inconclusive) | AC50 [28]: 3.43 µM (active) | EC50 [29]: > 10.1 µM (inactive) | EC50 [30]: > 91.2 µM (inactive) | AC50 [31]: 5.82 µM (active) | EC50 [32]: 0.286 µM (active) | EC50 [33]: > 350 µM (not active) | EC50 [34]: 20.6 µM (active)

O=C(NNC(=S)NC(=O)c1cccs1)c1ccc(NC(=O)c2ccccc2)cc1
IC50 [35]: 51.9 µM (inactive) | EC50 [36]: 0.479 µM (active) | EC50 [37]: 6.3 µM (active)
